Assays:
Mitra Avidin-Agarose = target: T1, Mitra Avidin-Agarose (Gallus gallus, UniProt P02701); assay: Adsorption of biotin-trimer to avidin-agarose column (conditioning), concentration in recirculated fluid by ELISA; assay type: binding; conditions: 2 mL Mitra Avidin-Agarose; 5 mL of 1 mg/mL biotin-trimer in PBS recirculated at 1 mL/min for 20 minutes; end of recirculation
T1 construct: Mitra
Experimental: Two mL of Mitra Avidin-Agarose was packed into a column housing and was washed with >10 mL of PBS at a flow rate of 1 mL/min (1.6 cm/min). Five mL of a 1 mg/mL solution of biotin-trimer in PBS was recirculated through the avidin-column at 1 mL/min for 20 minutes. At end of the recirculation, a sample (0.5 mL) was drawn from the recirculated solution and analysed by an ELISA technique developed by Mitra Medical Technology AB. The biotin-avidin-agarose-column was washed with phosphate buffer at 1 mL/min for 20 minutes. By determining the concentration of biotin-trimer in the recirculated fluid, the amount of adsorbed biotin-trimer was estimated to about 1.9 mg i.e. 0.95 mg/mL of gel at the end of recirculation.
Biotin-trimer was adsorbed to 2 mL of Mitra Avidin-Agarose. […] If one biotin-trimer is bound per available binding site this would correspond to […] biotin-trimer/mL. As about 0.95 mg biotin-trimer was bound per mL avidin-agarose it can be assumed that the adsorbent was saturated with biotin-trimer.

avidin = avidin (Gallus gallus, UniProt P02701); assay: Assessment of avidin adsorption on a column conditioned with biotin trimer, avidin by ELISA; assay type: binding
avidin, sequence (P02701 25-152): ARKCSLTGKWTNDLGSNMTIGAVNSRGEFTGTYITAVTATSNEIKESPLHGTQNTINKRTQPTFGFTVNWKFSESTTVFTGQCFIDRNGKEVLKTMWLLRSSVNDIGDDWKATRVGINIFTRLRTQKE
Experimental: An avidin-agarose column that was conditioned with a biotin trimer (i.e. FIG. 4, compound #2) was primed with phosphate buffer. Following this, 20 mL avidin-solution with 1 mg avidin/mL in PBS was recirculated through a biotin-avidin-agarose-column at 1.0 mL/min (1.6 cm/min). Three volumes of the avidin solution (3×20 mL) were processed and aliquots were drawn from the reservoir before start of the recirculation, then after 2 main and in 5 min intervals. The aliquots were analyzed for the quantity of avidin in them using an ELISA technique developed by Mitra Medical Technology AB. The dotted line represented the theoretically expected if no saturation effect has occurred. The column is saturated after about 40 min (2 vol.) when about 16 mg (80%) of, avidin has been bound. Signs of saturation was seen after about 20 min (1.0 vol.) when the experimental curve begin to deviate from the theoretical curve which occurred when about 10 mg of Avidin had been bound to the column.
After a 40 min recirculation, about 16 mg of avidin was bound, i.e. 8 mg/mL biotin-avidin-agarose. This corresponds to a 1:1 molar ration between the avidin coupled to agarose and the avidin adsorbed to the biotin-trimer. Initial saturation effects were seen after about one recirculated volume. After 2 volumes processed no further avidin was bound.

T1 sequence (P02701 25-152): as above

O=C(CCCCC1OCC2NC(=O)NC21)NCCOCCOCCNC(=O)c1cc(C(=O)NCCOCCOCCNC(=O)CCCCC2OCC3NC(=O)NC32)cc(C(=O)NCCOCCOCCNC(=O)CCCCC2OCC3NC(=O)NC32)c1 (stereo not drawn) [biotin-trimer]
amount of adsorbed biotin-trimer (Mitra Avidin-Agarose): about 1.9 mg | time until signs of saturation (avidin; 1.0 vol.): about 20 min | avidin bound at saturation of the column (avidin; 20 mL of 1 mg avidin/mL in PBS recirculated at 1.0 mL/min, after about 40 min (2 vol.)): about 16 mg | avidin bound when signs of saturation were seen (avidin; after about 20 min (1.0 vol.), experimental curve begins to deviate from theoretical curve): about 10 mg | share of avidin bound at saturation (avidin; after about 40 min (2 vol.)): ~80% | time until the column is saturated (avidin; recirculation at 1.0 mL/min, 2 vol.): about 40 min

Reference: patent US8124364B2, “Biotin derivatives” (Glycorex Transplantation AB, priority 2000, dated 2012)
